Source: patent US20240197685A1, “SELECTIVE ANGIOTENSIN II RECEPTOR LIGANDS” (priority 2021, published 2024)
Where “and” joins values, the source holds several entries; their conditions need not be identical. Identical values can stand only once. Like-named read-outs stand apart in the source and are kept apart here.

Experiments:
[1] = molecular target: T1, CYP2C9 (Homo sapiens, UniProt P11712); test: CYP inhibition, human liver microsomes; assay type: in vitro ADME; conditions: for inhibition at 10 µM: probe diclofenac, substrate diclofenac, human liver microsomes, read-out: CYP2C9 Inh %
T1 construct: tissue Eurofins protocol ITEMG232; host or cells: human liver microsomes
T1 sequence (P11712 whole entry): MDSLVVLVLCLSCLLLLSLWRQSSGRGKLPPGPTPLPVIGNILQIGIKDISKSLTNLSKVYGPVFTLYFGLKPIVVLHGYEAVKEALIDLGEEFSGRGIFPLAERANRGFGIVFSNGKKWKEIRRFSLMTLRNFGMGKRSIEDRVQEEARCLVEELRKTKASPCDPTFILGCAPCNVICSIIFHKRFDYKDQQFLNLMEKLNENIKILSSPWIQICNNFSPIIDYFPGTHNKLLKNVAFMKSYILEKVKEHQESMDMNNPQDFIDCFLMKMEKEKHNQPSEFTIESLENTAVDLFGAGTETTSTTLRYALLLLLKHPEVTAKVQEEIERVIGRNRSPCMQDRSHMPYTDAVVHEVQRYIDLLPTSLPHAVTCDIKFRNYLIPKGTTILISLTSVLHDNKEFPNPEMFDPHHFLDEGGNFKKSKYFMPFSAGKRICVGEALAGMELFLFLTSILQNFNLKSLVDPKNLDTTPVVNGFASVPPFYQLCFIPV

[2] = molecular target: T2, CYP2C8 (Homo sapiens, UniProt P10632); test: CYP inhibition, human liver microsomes; assay type: in vitro ADME; conditions: probe paclitaxel and amodiaquine, substrates paclitaxel and amodiaquine, read-out: CYP2C8 Inh %
T2 construct: tissue Eurofins protocol ITEMG232; host or cells: human liver microsomes
T2 sequence (P10632 1-490): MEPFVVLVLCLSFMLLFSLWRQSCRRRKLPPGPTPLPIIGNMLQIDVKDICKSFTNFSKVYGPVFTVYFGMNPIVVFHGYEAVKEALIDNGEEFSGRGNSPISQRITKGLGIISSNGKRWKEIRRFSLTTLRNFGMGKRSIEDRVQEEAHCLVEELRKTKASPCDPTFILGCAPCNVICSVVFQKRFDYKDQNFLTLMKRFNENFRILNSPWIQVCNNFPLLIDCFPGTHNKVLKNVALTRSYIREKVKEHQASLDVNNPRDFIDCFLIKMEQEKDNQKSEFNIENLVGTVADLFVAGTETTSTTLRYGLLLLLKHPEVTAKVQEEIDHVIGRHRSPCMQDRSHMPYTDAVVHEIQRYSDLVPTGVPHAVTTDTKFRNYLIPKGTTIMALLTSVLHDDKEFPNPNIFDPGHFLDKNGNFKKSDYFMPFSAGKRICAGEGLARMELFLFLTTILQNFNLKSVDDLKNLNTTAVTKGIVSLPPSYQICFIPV

[3] = Metabolic stability in pooled human liver microsomes; assay type: in vitro ADME; conditions: for half-life at 1 μM: human, pooled human liver microsomes, human liver microsomes 0.5 mg/mL, test compound 1 μM, 37° C.
[4] = molecular target: T3, CYP2B6 (Homo sapiens, UniProt P20813); test: CYP inhibition, human liver microsomes; assay type: in vitro ADME; conditions: probe bupropion, substrate bupropion, read-out: CYP2B6 Inh %
T3 construct: tissue Eurofins protocol ITEMG232; host or cells: human liver microsomes
T3 sequence (P20813 1-491): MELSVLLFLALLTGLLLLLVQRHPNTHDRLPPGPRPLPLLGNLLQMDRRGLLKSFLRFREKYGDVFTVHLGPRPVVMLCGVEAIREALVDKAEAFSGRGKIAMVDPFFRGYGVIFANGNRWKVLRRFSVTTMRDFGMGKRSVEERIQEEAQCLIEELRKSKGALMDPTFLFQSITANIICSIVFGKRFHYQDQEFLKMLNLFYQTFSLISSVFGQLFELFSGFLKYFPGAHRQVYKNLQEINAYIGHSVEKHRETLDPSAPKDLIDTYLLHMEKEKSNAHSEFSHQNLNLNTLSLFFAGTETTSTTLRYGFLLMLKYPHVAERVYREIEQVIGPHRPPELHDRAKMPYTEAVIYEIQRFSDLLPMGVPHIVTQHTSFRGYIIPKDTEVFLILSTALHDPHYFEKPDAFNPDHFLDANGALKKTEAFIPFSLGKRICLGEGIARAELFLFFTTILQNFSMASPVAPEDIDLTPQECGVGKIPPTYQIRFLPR

[5] = molecular target: T4, CYP2C19 (Homo sapiens, UniProt P33261); test: CYP inhibition, human liver microsomes; assay type: in vitro ADME; conditions: probe omeprazole, substrate omeprazole, read-out: CYP2C19 Inh %
T4 construct: tissue Eurofins protocol ITEMG232; host or cells: human liver microsomes
T4 sequence (P33261 whole entry): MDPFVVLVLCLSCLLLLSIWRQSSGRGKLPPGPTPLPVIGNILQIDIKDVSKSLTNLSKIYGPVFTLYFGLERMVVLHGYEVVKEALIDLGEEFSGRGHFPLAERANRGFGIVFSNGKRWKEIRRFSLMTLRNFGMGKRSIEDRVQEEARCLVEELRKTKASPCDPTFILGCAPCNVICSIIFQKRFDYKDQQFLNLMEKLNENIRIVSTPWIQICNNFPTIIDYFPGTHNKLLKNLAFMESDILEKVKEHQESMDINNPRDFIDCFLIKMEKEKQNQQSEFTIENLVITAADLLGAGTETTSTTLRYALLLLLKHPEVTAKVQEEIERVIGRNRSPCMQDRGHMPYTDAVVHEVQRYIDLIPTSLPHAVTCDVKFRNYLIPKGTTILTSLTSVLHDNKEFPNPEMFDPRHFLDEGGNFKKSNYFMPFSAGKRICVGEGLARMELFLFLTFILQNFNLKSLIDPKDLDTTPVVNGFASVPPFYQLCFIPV

[6] = molecular target: T5, CYP3A4 (Homo sapiens, UniProt P08684); test: CYP inhibition, human liver microsomes; assay type: in vitro ADME; conditions: for inhibition at 10 µM: probe midazolam, substrate midazolam, human liver microsomes, read-out: CYP3A4 midazolam Inh %
T5 construct: tissue Eurofins protocol ITEMG232; host or cells: human liver microsomes
T5 sequence (P08684 whole entry): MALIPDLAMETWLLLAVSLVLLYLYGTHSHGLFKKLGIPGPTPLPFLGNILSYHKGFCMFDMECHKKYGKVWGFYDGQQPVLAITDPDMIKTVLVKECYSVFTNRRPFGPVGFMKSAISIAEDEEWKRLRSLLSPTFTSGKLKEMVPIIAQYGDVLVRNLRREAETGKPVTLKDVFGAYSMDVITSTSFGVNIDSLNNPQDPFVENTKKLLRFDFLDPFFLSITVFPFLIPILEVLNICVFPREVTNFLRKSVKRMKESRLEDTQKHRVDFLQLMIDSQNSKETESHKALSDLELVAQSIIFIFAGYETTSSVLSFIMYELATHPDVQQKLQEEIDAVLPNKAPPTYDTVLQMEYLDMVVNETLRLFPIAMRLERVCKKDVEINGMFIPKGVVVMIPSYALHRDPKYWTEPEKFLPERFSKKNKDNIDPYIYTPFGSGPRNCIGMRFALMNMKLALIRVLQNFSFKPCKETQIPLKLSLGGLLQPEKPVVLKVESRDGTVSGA

[7] = molecular target: T6, human recombinant AT1 receptor (Homo sapiens, UniProt P30556); test: Binding to AT1 receptor, radiometric scintillation assay (Eurofins); conditions: single run; 1 and 10 μM; ligand 125I(sar1,Ile8)-AT-II
T6 construct: Eurofins protocol ITEM24
T6 sequence (P30556 1-359): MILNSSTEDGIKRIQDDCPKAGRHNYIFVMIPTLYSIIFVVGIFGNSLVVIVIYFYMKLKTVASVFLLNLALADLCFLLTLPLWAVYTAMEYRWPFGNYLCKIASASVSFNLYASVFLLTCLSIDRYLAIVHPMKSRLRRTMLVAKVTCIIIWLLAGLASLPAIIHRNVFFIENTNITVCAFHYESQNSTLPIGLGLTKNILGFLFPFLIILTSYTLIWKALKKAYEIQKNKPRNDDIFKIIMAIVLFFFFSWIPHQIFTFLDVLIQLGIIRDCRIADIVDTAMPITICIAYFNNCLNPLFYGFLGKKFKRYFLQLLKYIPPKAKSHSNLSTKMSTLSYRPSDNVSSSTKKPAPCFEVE

[8] = molecular target: T7, CYP2D6 (Homo sapiens, UniProt P10635); test: CYP inhibition, human liver microsomes; assay type: in vitro ADME; conditions: probe dextromethorphan, substrate dextromethorphan, read-out: CYP2D6 Inh %
T7 construct: tissue Eurofins protocol ITEMG232; host or cells: human liver microsomes
T7 sequence (P10635 whole entry): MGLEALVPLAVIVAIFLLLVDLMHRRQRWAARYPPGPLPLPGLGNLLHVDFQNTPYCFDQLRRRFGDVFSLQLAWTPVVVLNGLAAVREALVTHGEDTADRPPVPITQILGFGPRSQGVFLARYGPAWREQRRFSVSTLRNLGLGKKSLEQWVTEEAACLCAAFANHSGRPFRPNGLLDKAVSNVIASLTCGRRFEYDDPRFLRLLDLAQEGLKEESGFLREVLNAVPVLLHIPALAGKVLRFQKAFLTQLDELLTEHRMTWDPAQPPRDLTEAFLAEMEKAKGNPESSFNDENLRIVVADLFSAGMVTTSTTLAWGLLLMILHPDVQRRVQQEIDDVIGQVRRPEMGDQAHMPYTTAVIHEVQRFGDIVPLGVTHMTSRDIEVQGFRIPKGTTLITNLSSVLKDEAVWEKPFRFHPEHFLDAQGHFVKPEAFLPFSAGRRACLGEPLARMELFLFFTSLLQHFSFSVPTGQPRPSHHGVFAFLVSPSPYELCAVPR

[9] = molecular target: T8, CYP1A (Homo sapiens, UniProt P05177); test: CYP inhibition, human liver microsomes; assay type: in vitro ADME; conditions: probe phenacetin, substrate phenacetin, read-out: CYP1A Inh %
T8 construct: tissue Eurofins protocol ITEMG232; host or cells: human liver microsomes
T8 sequence (P05177 2-516 limits assumed): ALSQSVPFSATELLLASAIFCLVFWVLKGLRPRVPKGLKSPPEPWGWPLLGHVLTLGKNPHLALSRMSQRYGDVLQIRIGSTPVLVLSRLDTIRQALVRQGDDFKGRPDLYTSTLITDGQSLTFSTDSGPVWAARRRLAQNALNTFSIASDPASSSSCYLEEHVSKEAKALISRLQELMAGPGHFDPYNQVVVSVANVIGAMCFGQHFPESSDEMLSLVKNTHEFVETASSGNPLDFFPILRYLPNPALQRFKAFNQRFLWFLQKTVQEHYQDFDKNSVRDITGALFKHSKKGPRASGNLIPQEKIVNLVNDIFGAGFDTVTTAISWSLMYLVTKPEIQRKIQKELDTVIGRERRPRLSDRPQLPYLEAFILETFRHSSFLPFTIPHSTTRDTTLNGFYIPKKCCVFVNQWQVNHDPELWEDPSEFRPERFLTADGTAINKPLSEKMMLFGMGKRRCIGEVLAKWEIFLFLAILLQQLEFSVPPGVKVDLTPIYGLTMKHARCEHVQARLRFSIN

[10] = molecular target: T9, human recombinant AT2 receptor (Homo sapiens, UniProt P50052); test: Binding to AT2 receptor, radiometric scintillation assay (Eurofins); conditions: for IC50: read-out: AT2 GraFit IC50; for Ki: seven-point dose-response curve, read-out: AT2R Ki
T9 construct: Eurofins protocol ITEM26
T9 sequence (P50052 1-363): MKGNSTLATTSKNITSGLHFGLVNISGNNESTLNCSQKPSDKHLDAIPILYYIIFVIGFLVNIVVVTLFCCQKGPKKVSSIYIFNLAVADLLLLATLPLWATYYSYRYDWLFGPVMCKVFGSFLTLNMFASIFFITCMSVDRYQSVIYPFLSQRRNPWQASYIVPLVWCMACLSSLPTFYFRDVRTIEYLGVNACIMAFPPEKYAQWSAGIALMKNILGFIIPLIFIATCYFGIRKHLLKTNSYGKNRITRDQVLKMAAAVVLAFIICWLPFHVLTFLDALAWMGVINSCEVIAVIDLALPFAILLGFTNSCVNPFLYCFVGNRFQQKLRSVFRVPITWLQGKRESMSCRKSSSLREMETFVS

[11] = test system: CYP3A4&5; test: CYP inhibition, human liver microsomes; assay type: in vitro ADME; conditions: probe testosterone, substrate testosterone, read-out: CYP3A4&5 testosterone Inh %
[12] = with 1 mM NADPH, read-out: T1/2, + NaDPH
[13] = without NADPH, read-out: T1/2, no NaDPH
[14] = single run, 1, 10, 100 and 1000 nM, ligand 125I CGP 42112A
[15] = found during development, background statement

SMILES	inhibition at 10 µM [1] [%]	inhibition at 10 µM [2] [%]	half-life at 1 μM [3, 12] [h]	half-life at 1 μM [3, 13] [h]	inhibition at 10 µM [4] [%]	inhibition at 10 µM [5] [%]	inhibition at 10 µM [6] [%]	IC50 [7] [nM]	inhibition at 10 µM [8] [%]	inhibition at 10 µM [9] [%]	IC50 ([10]; mean average of the runs) [nM]	Ki ([10]; ligand 125I CGP 42112A) [nM]	IC50 [10, 14]	inhibition at 10 µM [11] [%]	inhibition of CYP 2C9 (in words) [1, 15]	metabolic hydrolysis (in words) [3, 15]	inhibition of CYP 3A4 (in words) [6, 15]
CC(C)Cc1cc(-c2ccc(Cn3ccnc3C(C)(C)C)cc2)c(S(=O)(=O)NC(=O)NCc2ccccn2)s1 [Example 4]	43.5	79.3	> 1	> 1	13.8	44.4	33.7	3000	24.3	-0.5	2.9	1.9	3.7 nM and 2.1 nM	16.7	–	–	–
CC(C)Cc1cc(-c2ccc(Cn3ccnc3C(C)(C)C)c(F)c2)c(S(=O)(=O)NC(=O)NCc2ccccn2)s1 [Example 5, 1-[[3-[4-[(2-Tert-butylimidazol-1-yl)methyl]-3-fluoro-phenyl]-5-isobutyl-2-thienyl]sulfonyl]-3-(2-pyridylmethyl)urea]	62.1	78.3	> 1	> 1	24.9	52.1	43	1800	23.2	34.1	–	–	0.44 nM	18.9	–	–	–
CC(C)Cc1cc(-c2ccc(Cn3ccnc3C(C)(C)C)c(F)c2)c(S(=O)(=O)NC(=O)NCc2cccs2)s1 [Example 7, 1-[[3-[4-[(2-Tert-butylimidazol-1-yl)methyl]-3-fluoro-phenyl]-5-isobutyl-2-thienyl]sulfonyl]-3-(2-thienylmethyl)urea]	76.3	79.9	0.383	> 1	50.5	49.1	52.3	3100	13.8	20.7	–	–	5 nM	16.7	–	–	–
CCCCOC(=O)NS(=O)(=O)c1sc(CC(C)C)cc1-c1ccc(Cn2ccnc2)cc1 [Example C21, N-butyloxycarbonyl-3-(4-imidazol-1-ylmethylphenyl)-5-isobutylthiophene-2-sulfon-amide, reference compound]	–	–	–	–	–	–	–	–	–	–	–	–	–	–	potent inhibitor	rapidly hydrolysed to an inactive sulfonamide metabolite	potent inhibitor
CC(C)Cc1cc(-c2ccc(Cn3ccnc3C(C)(C)C)cc2)c(S(=O)(=O)NC(=O)NCc2cccs2)s1 [Example 2]	64.6	81.8	0.533	> 1	9.6	56.8	40.9	2000	33.6	-1.8	2.5	1.25	2.5 nM	18	–	–	–
CC(C)Cc1cc(-c2ccc(Cn3ccnc3C(C)(C)C)cc2)c(S(=O)(=O)NC(=O)NCc2ccco2)s1 [Example 1, Furan-2-ylmethyl-3-[[5-isobutyl-3-[4-[(2-tert-butyl-imidazol-1-yl)methyl]phenyl]-2-thienyl]sulfonyl]urea]	58.4	77.8	> 1	> 1	96.5	49.1	11.6	3000	13.8	-13.2	4.2	2.8	2.6 nM and 5.7 nM	11.8	–	–	–
CCNC(=O)NS(=O)(=O)c1sc(CC(C)C)cc1-c1ccc(Cn2ccnc2C(C)(C)C)c(F)c1 [Example 6, 1-[[3-[4-[(2-Tert-butylimidazol-1-yl)methyl]-3-fluoro-phenyl]-5-isobutyl-2-thienyl]sulfonyl]-3-ethyl-urea]	39.7	77.6	> 1	> 1	27	35.1	23.8	–	18.8	15.8	–	–	–	10.8	–	–	–
COCCNC(=O)NS(=O)(=O)c1sc(CC(C)C)cc1-c1ccc(Cn2ccnc2C(C)(C)C)cc1 [Example 3]	–	–	> 1	> 1	–	–	–	–	–	–	–	–	–	–	–	–	–
